This assay deals with spontaneously hypertensive rat (SHR). Nature of the assay: Blood pressure (tail-cuff) in spontaneously hypertensive rats after L-NAME infusion. The class given is in vivo. The settings on record: L-NAME 10 ml/kg/10 min for 10 min. Here is the method: To determine a possible mechanism underlying the decrease in blood pressure after infusion of NE/E, L-NAME (N(omega)-nitro-L-arginine methyl ester), which is a nitric oxide synthase inhibitor, was infused at a rate of 10 ml/kg/10 min for a total 10 min. After infusion of the L-NAME, blood pressure was measured via the tail-cuff method. FIG. 3 illustrates the effect of the blood pressure after infusion of L-NAME.
Nitric oxide is tonically released by the activity of the constitutive endothelial and neuronal NO synthases (NOS). Nitric oxide is vasodilatory, and tonically produced NO maintains low blood pressure. During exercise, there is an increase in norepinephrine and an increase in nitric oxide production. […] The increase in production of nitric oxide is due to an activation of nitric oxide synthase, which in turn increase the levels of nitric oxide.

On to `COC(=O)[C@@H](N)CCCNC(=N)N[N+](=O)[O-]` [L-NAME, N(omega)-nitro-L-arginine methyl ester], for which the “effect on blood pressure after L-NAME infusion” value runs as follows: (SHR treated with NE/E for 28 days) “increase in blood pressure”; (SHR treated with vehicle for 28 days (controls)) “further decrease in the blood pressure”.

For the origin of these results see patent US20010053795A1, “Paradoxical pharmacology” (priority 2000, published 2001).
